According to US12358948B2, “Neurotensinergic agonists and methods of using same preventing or treating pain” (priority 2019, dated 2025):
Where a SMILES comes first, the peptide text is derived from it. Bridges are numbered along the chain shown (N, C = ends). [ ]: non-standard residue; d: D form. ξ: configuration not given here. dAllylGly = C=CC[C@@H](N)C(=O)O; Cha = N[C@@H](CC1CCCCC1)C(=O)O; Ile(3ξ) = CCC(C)[C@H](N)C(=O)O; AllylGly = C=CC[C@H](N)C(=O)O; Chg = N[C@H](C(=O)O)C1CCCCC1; Tle = CC(C)(C)[C@H](N)C(=O)O; Nle = CCCC[C@H](N)C(=O)O; Orn = NCCC[C@H](N)C(=O)O; Nva = CCC[C@H](N)C(=O)O; Dap = NC[C@H](N)C(=O)O

Experiments:
hNTS2 receptor = target: T1, hNTS2 receptor (Homo sapiens, UniProt O95665); assay: Competitive radioligand binding assay on the hNTS2 receptor; details: for IC50: displacement of 125I-[Tyr3]-NT, membranes of 1321N1 cells expressing hNTS2, read-out: IC50 NTS2 (converted); for Selectivity: ratio IC50 for NTS1 : IC50 for NTS2
T1 construct: membranes prepared from them
Description: (§1) CHO-K1 (Chinese Hamster Ovary) cells stably expressing hNTS1 and 1321N1 cells stably expressing hNTS2 (ES-690-C and ES-691-C from PerkinElmer, Montréal, Canada) were cultured respectively in Ham's F12 and in DMEM culture media. Culture media were supplemented with 10% FBS, 100 U/mL penicillin, 100 μg/mL streptomycin, 20 mM HEPES, and 0.4 mg/mL G418 at 37° C. in a humidified chamber at 5% CO2.
(§2) The cells expressing hNTS1 were frozen when they reached 80% confluency. They were scrapped off the dish with 10 mM Tris buffer, 1 mM EDTA, pH 7.5 and centrifuged at 15,000 g for 5 min at 4° C. The pellet was then re-suspended in 1 mL binding buffer. The cells expressing hNTS2 were also frozen when they reached 80% confluency. They were scraped off the dish with PBS, 0.5 mM EDTA, pH 7.5 and sonicated for 5 minutes (pulse 30 s/5 s off, amplitude 40%). They were ultracentrifuged at 100 000 g for 60 minutes at 4° C. The pellet was re-suspended in 1 mL freezing buffer (PBS, glycerol, 0.5 mM EDTA), sonicated for 1 minute (pulse 30 s/5 s off, amplitude 50%) and further diluted in binding buffer. Competitive radioligand binding experiments were performed by incubating 15 μg of cell membranes expressing the hNTS1 receptor with […] of ^125I-[Tyr^3]-NT (2200 Ci/mmol) or 50 μg of cell membranes expressing the hNTS2 receptor with […] of ^125I-[Tyr^3]-NT in binding buffer (50 mM Tris-HCl, pH 7.5, 0.2% BSA) in the presence of increasing concentrations of analogues ranging from 10^−11 to 10^−4 M for 60 min at 25° C. After incubation, the binding reaction mixture was transferred in PEI-coated 96-well filter plates (glass fiber filters GF/B, Millipore, Billerica, MA). Reaction was terminated by filtration, and plates were washed three times with 200 μL ice-cold binding buffer. Glass filters were then counted using a γ-counter (2470 Wizard2, PerkinElmer, Mississauga, Ontario, Canada). Non-specific binding was measured in the presence of 10^−5 M unlabeled NT (8-13) and represented less than 5% of total binding. IC50 values were determined from competition curves as the unlabeled ligand concentration inhibiting 50% of ^125I-[Tyr^3]-NT-specific binding.
(§3) Competitive radioligand binding data were plotted using the nonlinear regression One-site-Fit Log(IC50) and represented the mean±SEM of at least three independent experiments in triplicates.

hNTS1 receptor = target: T2, hNTS1 receptor (Homo sapiens, UniProt P30989); assay: Competitive radioligand binding assay on the hNTS1 receptor; details: displacement of 125I-[Tyr3]-NT, membranes of CHO-K1 cells expressing hNTS1; read-out: IC50 NTS1
T2 construct: membranes prepared from them
Description: as §1, §2, §3

T1 sequence (O95665 whole entry): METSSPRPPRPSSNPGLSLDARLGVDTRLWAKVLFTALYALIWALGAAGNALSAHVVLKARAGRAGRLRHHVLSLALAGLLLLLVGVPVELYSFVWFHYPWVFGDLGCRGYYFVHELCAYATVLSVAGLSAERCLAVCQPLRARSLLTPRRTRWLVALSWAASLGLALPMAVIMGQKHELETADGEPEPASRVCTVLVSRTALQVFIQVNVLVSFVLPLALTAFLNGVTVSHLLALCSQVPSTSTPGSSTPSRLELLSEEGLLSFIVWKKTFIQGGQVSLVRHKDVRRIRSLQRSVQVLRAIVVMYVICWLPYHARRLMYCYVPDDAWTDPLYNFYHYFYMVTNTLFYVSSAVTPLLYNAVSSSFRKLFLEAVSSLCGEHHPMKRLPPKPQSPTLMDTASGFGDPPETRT
T2 sequence (P30989 whole entry): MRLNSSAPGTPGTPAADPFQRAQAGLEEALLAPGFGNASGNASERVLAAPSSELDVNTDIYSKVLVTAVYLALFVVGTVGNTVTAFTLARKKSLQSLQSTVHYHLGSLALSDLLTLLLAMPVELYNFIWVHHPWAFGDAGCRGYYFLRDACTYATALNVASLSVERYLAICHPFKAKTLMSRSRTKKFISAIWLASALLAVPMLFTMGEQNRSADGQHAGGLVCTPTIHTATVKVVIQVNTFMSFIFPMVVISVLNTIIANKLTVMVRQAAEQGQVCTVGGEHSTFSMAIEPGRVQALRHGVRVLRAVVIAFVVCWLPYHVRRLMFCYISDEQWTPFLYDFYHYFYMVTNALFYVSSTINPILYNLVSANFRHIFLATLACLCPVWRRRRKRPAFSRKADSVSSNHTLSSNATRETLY

| Structure (SMILES) | IC50 (hNTS2 receptor) | Selectivity (hNTS2 receptor) | IC50 (hNTS1 receptor) |
| --- | --- | --- | --- |
| CC(C)C[C@H](NC(=O)[C@H](Cc1ccc(O)cc1)NC(=O)C1(C)CC=CCCC[C@H](N)C(=O)N[C@@H](CCCCN)C(=O)N[C@@H](CCCCN)C(=O)N1)C(=O)O (single isomer, unassigned) [compound 92, c[G(All)KKG*(alpha-Me-(4-Pentenyl))]YL] | 0.511 µM | >196 | > 100 µM |
| CC(C)C[C@@H](NC(=O)[C@H](Cc1ccc(O)cc1)NC(=O)[C@@H]1CC=CC[C@H](N)C(=O)N[C@@H](CCCCN)C(=O)N[C@@H](CCCCN)C(=O)N1)C(=O)O [compound 38, c[G(All)KKG(All)]YL*] (H-[AllylGly]KK[AllylGly]Y[dL]-OH; staple 1-4) | 240 µM | > 2.4 | > 100 µM |
| CC(C)C[C@H](NC(=O)[C@H](Cc1ccc(O)cc1)NC(=O)[C@H]1CC=CC[C@H](N)C(=O)N[C@@H](CCCCN)C(=O)N[C@@H](CCCCN)C(=O)N1)C(=O)O [compound 40, c[G(All)KKG*(All)]YL] (H-[AllylGly]KK[dAllylGly]YL-OH; staple 1-4) | 1.2 µM | >85 | > 100 µM |
| CC(C)C[C@H](NC(=O)[C@H](Cc1ccc(O)cc1)NC(=O)[C@@H]1CC=CC[C@@H](N)C(=O)N[C@@H](CCCCN)C(=O)N[C@@H](CCCCN)C(=O)N1)C(=O)O [compound 41, c[G*(All)KKG(All)]YL] (H-[dAllylGly]KK[AllylGly]YL-OH; staple 1-4) | 0.113 µM | >889 | > 100 µM |
| CC(C)C[C@H](NC(=O)[C@H](Cc1ccc(O)cc1)NC(=O)[C@@H]1CNC(=O)CC[C@H](N)C(=O)N[C@@H](CCCCN)C(=O)N[C@@H](CCCCN)C(=O)N1)C(=O)O [compound 102, c[EKKDap]YL] (H-EKK[Dap]YL-OH; lactam 1-4) |  |  | > 100 µM |
| CC(C)C[C@H](NC(=O)[C@H](Cc1ccc(O)cc1)NC(=O)[C@@H]1CCCNC(=O)CC[C@H](N)C(=O)N[C@@H](CCCCN)C(=O)N[C@@H](CCCCN)C(=O)N1)C(=O)O [compound 106, c[EKKOrn]YL] (H-EKK[Orn]YL-OH; lactam 1-4) |  |  | > 100 µM |
| CC(C)C[C@H](NC(=O)[C@H](Cc1ccc(O)cc1)NC(=O)[C@@H]1CCCNC(=O)C[C@H](N)C(=O)N[C@@H](CCCCN)C(=O)N[C@@H](CCCCN)C(=O)N1)C(=O)O [compound 107, c[DKKOrn]YL] (H-DKK[Orn]YL-OH; lactam 1-4) |  |  | > 100 µM |
| CC(C)C[C@H](NC(=O)[C@H](Cc1ccc(O)cc1)NC(=O)[C@@H]1CCCCNC(=O)CC[C@H](N)C(=O)N[C@@H](CCCCN)C(=O)N[C@@H](CCCCN)C(=O)N1)C(=O)O [compound 108, c[EKKK]YL] (H-EKKKYL-OH; lactam 1-4) |  |  | > 100 µM |
| CC(C)C[C@H](NC(=O)[C@H](Cc1ccc(O)cc1)NC(=O)[C@@H]1CCCCNC(=O)C[C@H](N)C(=O)N[C@@H](CCCCN)C(=O)N[C@@H](CCCCN)C(=O)N1)C(=O)O [compound 109, c[DKKK]YL] (H-DKKKYL-OH; lactam 1-4) |  |  | > 100 µM |

More lines, now with the values ahead:

| IC50 (hNTS2 receptor) | Selectivity (hNTS2 receptor) | IC50 (hNTS1 receptor) | Structure (SMILES) |
| --- | --- | --- | --- |
| 10.2 µM | 10 | 100 µM | CCC(C)[C@H](NC(=O)[C@H](Cc1ccc(O)cc1)NC(=O)[C@@H]1CC=CC[C@H](N)C(=O)N[C@@H](CCCCN)C(=O)N[C@@H](CCCCN)C(=O)N1)C(=O)O (some centres unmarked) [compound 14, c[G(All)KKG(All)]YI] (H-[AllylGly]KK[AllylGly]Y[Ile(3ξ)]-OH; staple 1-4) |
|  |  | > 100 µM | CC(=O)Oc1ccc(C[C@H](NC(=O)[C@@H]2CC=CC[C@H](N)C(=O)N[C@@H](CCCCN)C(=O)N[C@@H](CCCCN)C(=O)N2)C(=O)N[C@@H](CC(C)C)C(=O)O)cc1 [compound 15, c[G(All)KKG(All)]Y(OAc)L] (H-[AllylGly]KK[AllylGly]Y(Ac)L-OH; staple 1-4) |
| 0.0536 µM | 1865 | > 100 µM | CC(C)C[C@H](NC(=O)[C@H](Cc1c[nH]c2ccccc12)NC(=O)[C@@H]1CC=CC[C@H](N)C(=O)N[C@@H](CCCCN)C(=O)N[C@@H](CCCCN)C(=O)N1)C(=O)O [compound 16, c[G(All)KKG(All)]WL] (H-[AllylGly]KK[AllylGly]WL-OH; staple 1-4) |
| 1.1 µM | 90.9 | > 100 µM | CC(C)C[C@H](NC(=O)[C@H](CCCCN)NC(=O)[C@@H]1CC=CC[C@H](N)C(=O)N[C@@H](CCCCN)C(=O)N[C@@H](CCCCN)C(=O)N1)C(=O)O [compound 17, c[G(All)KKG(All)]KL] (H-[AllylGly]KK[AllylGly]KL-OH; staple 1-4) |
| 4.7 µM |  | > 100 µM | CC(C)C[C@H](NC(=O)[C@@H](Cc1ccc(O)cc1)NC(=O)[C@@H]1CC=CC[C@H](N)C(=O)N[C@@H](CCCCN)C(=O)N[C@@H](CCCCN)C(=O)N1)C(=O)O [compound 21, c[G(All)KKG(All)]Y*L] (H-[AllylGly]KK[AllylGly][dY]L-OH; staple 1-4) |
| 77.8 µM | >1.3 | > 100 µM | CC(C)(C)[C@H](NC(=O)[C@H](Cc1ccc(O)cc1)NC(=O)[C@@H]1CC=CC[C@H](N)C(=O)N[C@@H](CCCCN)C(=O)N[C@@H](CCCCN)C(=O)N1)C(=O)O [compound 27, c[G(All)KKG(All)]YTle] (H-[AllylGly]KK[AllylGly]Y[Tle]-OH; staple 1-4) |
| 0.381 µM | >262 | > 100 µM | CCCC[C@H](NC(=O)[C@H](Cc1ccc(O)cc1)NC(=O)[C@@H]1CC=CC[C@H](N)C(=O)N[C@@H](CCCCN)C(=O)N[C@@H](CCCCN)C(=O)N1)C(=O)O [compound 28, c[G(All)KKG(All)]YNle] (H-[AllylGly]KK[AllylGly]Y[Nle]-OH; staple 1-4) |
| 3.3 µM | >30.3 | > 100 µM | CCC[C@H](NC(=O)[C@H](Cc1ccc(O)cc1)NC(=O)[C@@H]1CC=CC[C@H](N)C(=O)N[C@@H](CCCCN)C(=O)N[C@@H](CCCCN)C(=O)N1)C(=O)O [compound 29, c[G(All)KKG(All)]YNva] (H-[AllylGly]KK[AllylGly]Y[Nva]-OH; staple 1-4) |
| 0.955 µM | >104 | > 100 µM | NCCCC[C@@H]1NC(=O)[C@H](CCCCN)NC(=O)[C@@H](N)CC=CC[C@@H](C(=O)N[C@@H](Cc2ccc(O)cc2)C(=O)N[C@H](C(=O)O)C2CCCCC2)NC1=O [compound 30, c[G(All)KKG(All)]YChG] (H-[AllylGly]KK[AllylGly]Y[Chg]-OH; staple 1-4) |
| 0.00867 µM | >11534 | > 100 µM | NCCCC[C@@H]1NC(=O)[C@H](CCCCN)NC(=O)[C@@H](N)CC=CC[C@@H](C(=O)N[C@@H](Cc2ccc(O)cc2)C(=O)N[C@@H](CC2CCCCC2)C(=O)O)NC1=O [compound 31, c[G(All)KKG(All)]YA(Ch)] (H-[AllylGly]KK[AllylGly]Y[Cha]-OH; staple 1-4) |
| 0.453 µM | >220 | > 100 µM | NCCCC[C@@H]1NC(=O)[C@H](CCCCN)NC(=O)[C@@H](N)CC=CC[C@@H](C(=O)N[C@@H](Cc2ccc(O)cc2)C(=O)N[C@@H](Cc2ccccc2)C(=O)O)NC1=O [compound 32, c[G(All)KKG(All)]YF] (H-[AllylGly]KK[AllylGly]YF-OH; staple 1-4) |
| 79.8 µM | >1.25 | > 100 µM | CC(C)[C@H](NC(=O)[C@H](Cc1ccc(O)cc1)NC(=O)[C@@H]1CC=CC[C@H](N)C(=O)N[C@@H](CCCCN)C(=O)N[C@@H](CCCCN)C(=O)N1)C(=O)O [compound 33, c[G(All)KKG(All)]YV] (H-[AllylGly]KK[AllylGly]YV-OH; staple 1-4) |
